According to patent US12582645B2, “Chemokine CXCR4 receptor modulators and uses related thereto” (Emory University, priority 2017, dated 2026):
Read-outs that look alike come from different tables or passages of the source. Values belong to the compound of their own block, whether it stands above or below them.

Molecular target: T1, CXCR4 (Homo sapiens, UniProt P61073)
T1 construct: Human T lymphoblast cells (CCRF-CEM) expressing endogenous CXCR4 receptors; endogenous in cells; host or cells: CCRF-CEM (human T lymphoblast cells)
Assay: CXCR4-CEM calcium flux assay, antagonist mode (inhibition of SDF-1α-induced calcium flux)
Assay type: cell-based
Experimental: CXCR4-CEM Calcium Flux Assays
Exemplary compounds of the invention were tested for their ability to induce or inhibit calcium flux in CCRF-CEM cells, a human cell line that endogenously expresses CXCR4. Activation of CXCR4 stimulates G protein signaling which, in CCRF-CEM cells, causes a series of downstream events that leads to the release of intracellular calcium stores, or calcium flux. Calcium ion concentrations can be easily measured using a wide variety of […] calcium indicators and, as a result, calcium flux assays are commonly employed methods for measuring G protein-coupled receptor (GPCR) activity. Because the therapeutic potential of CXCR4 antagonists as anti-cancer agents likely relies on their ability to inhibit CXCR4-mediated G protein signaling, this assay was utilized as a first-pass measure of inhibitor potency.
The cells were then equilibrated to room temperature for 30 minutes before assay. […] For “antagonist mode” assessment, the cells are subsequently incubated for 25 minutes at room temperature. SDF-1α (R&D System Cat #350-NS/CF) was then added at a final concentration of 4 nM to stimulate the cells. Inhibition of SDF-1α-induced calcium flux was monitored by FDSS6000 for 90 seconds.
After correcting for background, EC50 values were determined. […] Inhibition data for the test compound over a range of concentrations was plotted as percentage inhibition of the test compound as compared to an internal control compound.

[1] = CCRF-CEM cells expressing endogenous CXCR4, stimulated with 4 nM SDF-1α, read-out: CXCR4 Ca^2+ Flux IC50

T1 sequence (P61073 whole entry): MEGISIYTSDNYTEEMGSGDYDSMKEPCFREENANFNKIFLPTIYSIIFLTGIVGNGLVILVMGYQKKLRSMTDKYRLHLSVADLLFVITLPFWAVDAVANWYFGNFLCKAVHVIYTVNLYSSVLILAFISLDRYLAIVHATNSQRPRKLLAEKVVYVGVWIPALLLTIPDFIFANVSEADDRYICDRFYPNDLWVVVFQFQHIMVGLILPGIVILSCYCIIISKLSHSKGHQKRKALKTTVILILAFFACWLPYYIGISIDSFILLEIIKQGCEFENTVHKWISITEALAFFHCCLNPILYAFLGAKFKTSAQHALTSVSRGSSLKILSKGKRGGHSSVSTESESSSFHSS

SMILES: CC1(C)CCC(NC/C=C/CN(C[C@H]2Cc3ccccc3CN2)[C@H]2CCCc3cccnc32)CC1 [EMU153, (E)-N1-(4,4-dimethylcyclohexyl)-N4-(((R)-1,2,3,4-tetrahydroisoquinolin-3-yl)methyl)-N4-((S)-5,6,7,8-tetrahydroquinolin-8-yl)but-2-ene-1,4-diamine]
IC50 [1]: 64.6 nM

SMILES: FC1(F)CCC(NC/C=C/CN(C[C@H]2Cc3ccccc3CN2)[C@H]2CCCc3cccnc32)CC1 [EMU154, (E)-N1-(4,4-difluorocyclohexyl)-N4-(((R)-1,2,3,4-tetrahydroisoquinolin-3-yl)methyl)-N4-((S)-5,6,7,8-tetrahydroquinolin-8-yl)but-2-ene-1,4-diamine]
IC50 [1]: 82.1 nM

SMILES: CN(C[C@H]1Cc2c(cccc2N2CCN3CCC[C@H]3C2)CN1)[C@H]1CCCc2cccnc21 [EMU160]
IC50 [1]: 2.92 nM

SMILES: CC(C)N(C[C@H]1Cc2c(cccc2N2CCNCC2)CN1)[C@H]1CCCc2cccnc21 [EMU163]
IC50 [1]: 364 nM

SMILES: Cc1cccnc1CN(CCCN1CCNCC1)C[C@H]1Cc2c(cccc2N2CCNCC2)CN1 [EMU164, (R)—N-((3-methylpyridin-2-yl)methyl)-3-(piperazin-1-yl)-N-((5-(piperazin-1-yl)-1,2,3,4-tetrahydroisoquinolin-3-yl)methyl)propan-1-amine]
IC50 [1]: 33.7 nM

SMILES: Cc1ccc(CN(CCCCN)C[C@H]2Cc3c(cccc3N3CCNCC3)CN2)nc1 [EMU165, (R)—N1-((5-methylpyridin-2-yl)methyl)-N1-((5-(piperazin-1-yl)-1,2,3,4-tetrahydroisoquinolin-3-yl)methyl)butane-1,4-diamine]
IC50 [1]: 115 nM

SMILES: c1cnc2c(c1)CCC[C@@H]2N(CCCN1CCNCC1)Cc1cc2ccccc2cn1 [EMU168]
IC50 (CXCR4 Ca^2+ Flux IC50, CCRF-CEM cells expressing endogenous CXCR4, stimulated with 4 nM SDF-1α): 17.3 nM

SMILES: CC1(C)CCC(NCc2ccc(CN(C[C@H]3Cc4ccccc4CN3)[C@H]3CCCc4cccnc43)cc2)CC1 [EMU181, (S)—N-(4-(((4,4-dimethylcyclohexyl)amino)methyl)benzyl)-N—(((R)-1,2,3,4-tetrahydroisoquinolin-3-yl)methyl)-5,6,7,8-tetrahydroquinolin-8-amine]
IC50 [1]: 661 nM

SMILES: FC1(F)CCC(NCc2ccc(CN(C[C@H]3Cc4ccccc4CN3)[C@H]3CCCc4cccnc43)cc2)CC1 [EMU182, (S)—N-(4-(((4,4-difluorocyclohexyl)amino)methyl)benzyl)-N—(((R)-1,2,3,4-tetrahydroisoquinolin-3-yl)methyl)-5,6,7,8-tetrahydroquinolin-8-amine]
IC50 [1]: 143 nM

SMILES: CN(C[C@H]1Cc2c(cccc2N2CCN(C3COC3)CC2)CN1)[C@H]1CCCc2cccnc21 [EMU183]
IC50 [1]: 380 nM

SMILES: c1cnc2c(c1)CCC[C@@H]2N(CCCN1CCNCC1)Cc1nc2ccccc2[nH]1 [EMU185, (S)—N-((1H-benzo[d]imidazole-2yl)methyl)-N-(3-(piperazine-1yl)propyl)-5,6,7,8-tetrahydroquinolin-8-amine]
IC50 [1]: 45.3 nM

SMILES: c1cnc2c(c1)CCC[C@@H]2N(CCCN1CCNCC1)Cc1nc2ccccc2s1 [EMU186, (S)—N-((1H-benzo[d]thiazol-2yl)methyl)-N-(3-(piperazine-1yl)propyl)-5,6,7,8-tetrahydroquinolin-8-amine]
IC50 [1]: 1200 nM

SMILES: c1cnc(CN(CCCN2CCNCC2)[C@H]2CCCc3cccnc32)nc1 [EMU187, (S)—N-(3-(piperazin-1yl)propyl)-N-(pyrimidin-2ylmethyl)-5,6,7,8-tetrahydroquinolin-8-amine]
IC50 [1]: 4320 nM

SMILES: CN(C[C@H]1Cc2c(cccc2N2CCN(c3ncccn3)CC2)CN1)[C@H]1CCCc2cccnc21 [EMU203]
IC50 [1]: 30.7 nM

SMILES: NC(=O)NC/C=C\CN(C[C@H]1Cc2ccccc2CN1)[C@H]1CCCc2cccnc21 [EMU211]
IC50 [1]: 207 nM

SMILES: c1ccc2c(c1)CN[C@@H](CN(Cc1ccc(CNC3CCOCC3)cc1)[C@H]1CCCc3cccnc31)C2 [EMU217, (S)—N-(4-(((tetrahydro-2H-pyran-4-yl)amino)methyl)benzyl)-N—(((R)-1,2,3,4-tetrahydroisoquinolin-3-yl)methyl)-5,6,7,8-tetrahydroquinolin-8-amine]
IC50 [1]: 90.3 nM

SMILES: c1ccc2c(c1)CN[C@@H](CN(Cc1ccc(CNCc3ccncc3)cc1)[C@H]1CCCc3cccnc31)C2 [EMU218, (S)—N-(4-(((pyridin-4-ylmethyl)amino)methyl)benzyl)-N—(((R)-1,2,3,4-tetrahydroisoquinolin-3-yl)methyl)-5,6,7,8-tetrahydroquinolin-8-amine]
IC50 [1]: 134 nM

SMILES: c1ccc(CNCc2ccc(CN(C[C@H]3Cc4ccccc4CN3)[C@H]3CCCc4cccnc43)cc2)nc1 [EMU220, (S)—N-(4-(((pyridin-2-ylmethyl)amino)methyl)benzyl)-N—(((R)-1,2,3,4-tetrahydroisoquinolin-3-yl)methyl)-5,6,7,8-tetrahydroquinolin-8-amine]
IC50 [1]: 286 nM

SMILES: C(=C\CN(C[C@H]1Cc2ccccc2CN1)[C@H]1CCCc2cccnc21)/CNCc1cccnc1 [EMU222, (E)-N1-(pyridin-3-ylmethyl)-N4-(((R)-1,2,3,4-tetrahydroisoquinolin-3-yl)methyl)-N4-((S)-5,6,7,8-tetrahydroquinolin-8-yl)but-2-ene-1,4-diamine]
IC50 [1]: 92.8 nM

Now from value to compound:

IC50 [1]: 15.5 nM
SMILES: C(=C\CN(C[C@H]1Cc2ccccc2CN1)[C@H]1CCCc2cccnc21)/CNC1CCOCC1 [EMU155, (E)-N1-(tetrahydro-2H-pyran-4-yl)-N4-(((R)-1,2,3,4-tetrahydroisoquinolin-3-yl)methyl)-N4-((S)-5,6,7,8-tetrahydroquinolin-8-yl)but-2-ene-1,4-diamine]

IC50 [1]: 9.88 nM
SMILES: Cc1cccnc1CN(CCCCN)C[C@H]1Cc2c(cccc2N2CCNCC2)CN1 [EMU166, (R)—N1-((3-methylpyridin-2-yl)methyl)-N1-((5-(piperazin-1-yl)-1,2,3,4-tetrahydroisoquinolin-3-yl)methyl)butane-1,4-diamine]

IC50 [1]: 21.5 nM
SMILES: CN(C[C@H]1Cc2c(cccc2NCCN2CCOCC2)CN1)[C@H]1CCCc2cccnc21 [EMU173, (S)—N-methyl-N—(((R)-5-((2-morpholinoethyl)amino)-1,2,3,4-tetrahydroisoquinolin-3-yl)methyl)-5,6,7,8-tetrahydroquinolin-8-amine]

IC50 [1]: 13.2 nM
SMILES: C/C(=C/CN(C[C@H]1Cc2ccccc2CN1)[C@H]1CCCc2cccnc21)CN [EMU177]

IC50 [1]: 24.2 nM
SMILES: C(=C\CN(C[C@H]1Cc2ccccc2CN1)[C@H]1CCCc2cccnc21)/CNCC1CCOCC1 [EMU180, (E)-N1-((tetrahydro-2H-pyran-4-yl)methyl)-N4-(((R)-1,2,3,4-tetrahydroisoquinolin-3-yl)methyl)-N4-((S)-5,6,7,8-tetrahydroquinolin-8-yl)but-2-ene-1,4-diamine]

IC50 [1]: 23.5 nM
SMILES: CN(C[C@H]1Cc2c(cccc2N2CCN(C3CC3)CC2)CN1)[C@H]1CCCc2cccnc21 [EMU196]

IC50 [1]: 16.9 nM
SMILES: CC(C)N1CCN(c2cccc3c2C[C@H](CN(C)[C@H]2CCCc4cccnc42)NC3)CC1 [EMU197]

IC50 [1]: 14.1 nM
SMILES: C[C@@H]1CN(c2cccc3c2C[C@H](CN(C)[C@H]2CCCc4cccnc42)NC3)C[C@H](C)N1C [EMU198]

IC50 [1]: 13.8 nM
SMILES: CCN1CCN(c2cccc3c2C[C@H](CN(C)[C@H]2CCCc4cccnc42)NC3)CC1 [EMU199]

IC50 [1]: 20.7 nM
SMILES: CN(C[C@H]1Cc2c(cccc2N2C[C@H]3C[C@@H]2CN3)CN1)[C@H]1CCCc2cccnc21 [EMU200]

IC50 [1]: 28.2 nM
SMILES: C/C(=C/CN)CN(C[C@H]1Cc2ccccc2CN1)[C@H]1CCCc2cccnc21 [EMU208]
